Results published in patent US8852876B2, “Label free biosensors and cells” (Corning Incorporated, priority 2008, dated 2014).

What was measured:
[1] = tested on: protease activated receptors PAR1 and PAR2; format: cell-based, human
In short: (§1)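 A431 cells at passage 3-5 grown in DMEM/10% FBS at 37° C, 5% CO2 to ~95% confluency (~2-4 days). Compounds and PAR agonists prepared in 1×HBSS to match the refractive index of the cell medium for dynamic mass redistribution (DMR) read-out.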

[2] = tested on: protease activated receptors PAR1 and PAR2; experiment: Fluo-3 Ca2+ mobilization assay with PAR agonists; format: cell-based, human; settings: for Concentration required to induce a maximal response: [Ca2+]i; for Maximal [Ca2+]i elevation / EC50: quiescent A431, Fluo-3; for EC50: read-out: EC50 of [Ca2+]i increase
In short: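 A431 cells (passage 3–5), serum-starved overnight, loaded with 4 μM Fluo-3 for 1 h in HBSS/20 mM HEPES pH 7.0 with 2.5 mM probenecid. PAR agonist added and calcium fluorescence recorded over 6 min at 6 s intervals, room temperature.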

quiescent A431 cells = experiment: mβCD-induced response (cholesterol effluxing) on LID sensor; format: cell-based, human; settings: 20 nM EGF or 1000 nM H7; pretreated at least 40 minutes
Text: The disclosed methods can be used to assay cholesterol transport and to, for example, screen for molecules that effect cholesterol transport, such as effluxing and uptake. […] This method is based on the measurement in real time of the effect of compounds on cholesterol effluxing. Depletion of cholesterol content on cell surface or intracellular pool results in the disappearance of microvilli located in the cell surface, resulting in the flatness of cells adherent on a surface. The flatness of cells leads to a positive DMR phase with increased signal. Based on this biological effect, we use reagents, as markers, that can either extract cholesterol from the cell surface (e.g., methyl-beta-cyclodextrin (mβCD), or high density lipoproteins (HDLs)), or bind or sequester cholesterol on the cell surface (e.g., saponin at relatively low concentrations). The changes obtained using optical biosensors can be used as an indicator of modulators that interfere with the cholesterol effuxing. FIG. 27 provides a schematic of a cholesterol pathway.

CHO cells = experiment: EGF stimulation of CHO cells on optical biosensor (DMR); format: cell-based, Chinese hamster; settings: CHO cells incubated with EGF
Method: (§2) Both A431 and CHO-K1 cells were grown in Dulbecco's modified Eagle's medium (DMEM) supplemented with 10% fetal calf serum, 100 μg/ml penicillin, and 100 μg/ml streptomycin. For cell culture, certain numbers of cells (2×10^5 to 1×10^6), either A431 or CHO-K1, were suspended in […] medium were placed in each well of a 96 well Corning Epic Biosensor microplate, and were cultured at 37° C. in air/5% CO2 for certain time until the cell density reached ˜90% and above (unless specified). The resulted cells were termed as “profilerating” cells. The “quiescent” cells were obtained by culturing the profilerating cells of desired confluencies with a medium containing no or little (˜0.1% fetal bovine serum (FBS)) for at least 16 hours.
The cells, either proliferating or quiescent cells, were either directly used for assays or washed once with the corresponding medium (both result in no obvious difference in cell responses). During the assays, the cells in 100 μl medium were subject to two 25 μl HBSS buffer containing 20 mM HEPES, pH 7.4, each separated by at least 15 minutes before 50 μl stimulus-containing solution was applied. During all these steps, a parallel angular interrogation system was used to monitor the real time kinetics of cellular responses. […]

EGFR = molecular target: T1, EGFR (Homo sapiens, UniProt P00533); experiment: EGF-induced DMR response of A431 cells on RWG optical biosensor; format: cell-based; settings: quiescent A431 cells
T1 construct: endogenously over-expressed EGFRs; endogenous in cells; host or cells: A431 (American Type Cell Culture)
Method: as §2
During the assays, the cells in 100 μl medium were subject to two 25 μl HBSS buffer containing 20 mM HEPES, pH 7.4, each separated by at least 15 minutes before 50 μl stimulus-containing solution was applied. […] For compound effect studies, a modified protocol was used which starts with 50 μl medium, and subject to sequential treatment: 25 μl HBSS buffer twice (each separated by at least 15 minutes), 50 μl compound solution and finally 50 μl stimulus-containing solution.

[3] = tested on: actin filaments in A431 cells; experiment: Texas Red-phalloidin fluorescence imaging; format: cell-based, human; settings: 100 nM trypsin or 40 unit/ml thrombin; ~95% confluency
Method: Cells were grown on Corning® Epic™ 96 well biosensor microplates, starved for overnight with serum-free DMEM medium, chased with either trypsin or thrombin for certain time, fixed with 4% paraformaldehyde, permeabilized in phosphate-buffered saline (PBS) containing 0.2% Triton, and blocked with 1% bovine serum albumin (BSA). Afterwards, cells were incubated with 0.5 μM Texas Red-labeled phalloidin for 1 h at room temperature, and washed. After final washes and mounting, cells were examined with a 40× objective, equipped in a Zeiss Axioplan fluorescence microscope.

[4] = tested on: endogenous GPCRs in A431 cells; experiment: DMR optical biosensor profiling of GPCR agonists; format: cell-based, human; settings: quiescent A431; first class = Gq-type, second = Gs-type, third = Gi-type, fourth = no significant DMR
Method: Human epidermoid carcinoma A431 cells (American Type Cell Culture) were grown in Dulbecco's modified Eagle's medium (DMEM) supplemented with 10% fetal bovine serum (FBS), 4.5 g/liter glucose, 2 mM glutamine, and antibiotics. ˜3-7.5×10^4 cells at passage 3 to 5 suspended in 200 μl the DMEM medium containing 10% FBS were placed in each well of a 96 well microplate. Similarly ˜1-2×10^4 cells in 50 μl the growth medium were placed in each well of a 384 well microplate. After cell seeding, the cells were cultured at 37° C. under air/5% CO2 until ˜95% confluency was reached (˜2-4 days).
A Corning® Epic™ angular interrogation system with transverse magnetic or p-polarized TM0 mode was used for all studies. Several extra actions were taken to minimize the unwanted effects. First, to minimize the bulk index changes when a compound solution is introduced, 1×HBSS buffer without any probenecid was used to dilute all the compounds, whereas the DMEM buffer only was used to starve the cells. Secondly, to facilitate the cell responses as well as to rapidly reach a steady state when the sensor plates having cells were placed in the system at room temperature, the cells were pre-starved with the DMEM buffer without any FBS for a prolonged period of time (typically 20±2 hours), and the quiescent cells were directly used for assays without any wash.
For kinetics measurements, the cultured cells (˜95% confluency) were starved for about 20 hours with DMEM alone at 37° C. under air/5% CO2. Afterwards, the sensor microplate containing cells was placed into the optical system, and the cell responses were recorded before and after addition of a solution at room temperature. […] All studies were carried out at room temperature with the lid of the microplate on except for a short period of time (˜seconds) when the solution was introduced, in order to minimize the effect of temperature fluctuation and evaporative cooling. The unit of the responses indicated herein was a change in pixel of the central position of the resonant band of each sensor as imaged by a CCD camera; 1 unit equals to ˜5.82×10^−4 refractive index changes, based on an experimental normalization protocol, which uses the concentration-dependent responses of both glycerol and dimethyl sulfoxide.
The panel of agonists were used individually to stimulate quiescent A431 cells. The dose-dependent and kinetic responses were recorded and analyzed. In a typical kinetic measurement, the angular shift of resonant lights of each sensor induced by an agonist is monitored in real time and plotted as a function of time. An increased signal (P-DMR) means an increase in the amount of bio-molecules within the sensing volume (˜120 nm); conversely, a decreased signal (N-DMR) means a decrease in the amount of bio-molecules within the sensing volume. The sensing volume, also known as penetration depth, is an intrinsic property of the coupled light within the waveguide film, which creates an evanescent wave extending into the cell layer and the medium.

[5] = molecular target: T2, protease activated receptors PAR1 and PAR2 (Homo sapiens, UniProt P55085); format: cell-based
T2 construct: A431 cells which endogenously express PAR1 and PAR2; endogenous in cells; host or cells: A431
T2 sequence (P55085 26-397): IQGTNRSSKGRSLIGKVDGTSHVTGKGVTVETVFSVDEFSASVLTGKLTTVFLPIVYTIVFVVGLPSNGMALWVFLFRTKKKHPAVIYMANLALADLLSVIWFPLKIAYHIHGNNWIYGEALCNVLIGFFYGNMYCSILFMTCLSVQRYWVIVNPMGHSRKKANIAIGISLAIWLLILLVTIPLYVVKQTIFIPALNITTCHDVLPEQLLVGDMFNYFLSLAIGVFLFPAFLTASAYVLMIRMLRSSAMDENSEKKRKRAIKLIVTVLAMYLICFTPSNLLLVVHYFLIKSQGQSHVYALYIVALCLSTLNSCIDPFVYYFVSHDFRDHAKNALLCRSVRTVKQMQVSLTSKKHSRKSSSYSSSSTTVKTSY
In short: as §1

[6] = molecular target: T3, protease activated receptors PAR1 and PAR2 (Homo sapiens, UniProt P25116); format: cell-based
T3 construct: A431 cells which endogenously express PAR1 and PAR2; endogenous in cells; host or cells: A431
T3 sequence (P25116 22-425): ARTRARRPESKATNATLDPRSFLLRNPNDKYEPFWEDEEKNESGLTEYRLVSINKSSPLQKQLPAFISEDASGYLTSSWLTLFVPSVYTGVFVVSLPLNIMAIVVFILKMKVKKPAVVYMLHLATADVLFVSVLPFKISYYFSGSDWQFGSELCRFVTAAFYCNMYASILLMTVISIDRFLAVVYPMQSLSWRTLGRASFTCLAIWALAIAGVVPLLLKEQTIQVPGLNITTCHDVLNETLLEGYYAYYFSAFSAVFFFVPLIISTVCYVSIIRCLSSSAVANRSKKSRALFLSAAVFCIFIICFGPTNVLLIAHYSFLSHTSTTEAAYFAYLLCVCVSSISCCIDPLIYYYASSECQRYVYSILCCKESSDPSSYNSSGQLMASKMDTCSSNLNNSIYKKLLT
In short: as §1

A431 cells = experiment: Cell adhesion and spreading on RWG biosensor; format: cell-based, human; settings: 100 nM; 5% FBS; room temperature
Text: The adhesion and spreading of cells at surfaces were well studied using optical imaging techniques, as well as optical biosensors such as SPR and RWG. […] Subsequently, attached cells undergo morphological changes known as spreading—a process that the cells increase their area in contact with the surface. Both attachment and spreading are dependent on the nature of the surface and of the medium in which the cells are suspended. Since cell adhesion and spreading obviously leads to both vertical and horizontal mass redistribution within the sensing volume, we first characterized the adhesion and spreading of A431 cells in 5% FBS in the absence and presence of vincristine. Vincristine is a plant alkaoid that inhibits microtubule assembly by binding to tubulin.
We studied the adhesion and spreading of A431 cells in 5% FBS in the absence and presence of vincristine at room temperature (25° C.). […] Following the addition of cell solution, there is an immediate and rapid increased signal, which is probably resulted from three events: the increased bulk index from the addition of the cell solution, the immobilization of serum proteins onto the sensor surface, and the sedimentation of cells and subsequent contact of cells with the surface. Afterwards, a prolonged increased signal occurred, indicating the slow process of cell spreading. Ultimately a saturated level was reached. […]

Compound: epidermal growth factor [EGF]
- Effect of preceding stimulation on DMR responses mediated by trypsin or thrombin ([1]; EGF 100 nM, 100 nM trypsin, 40 unit/ml thrombin): totally blocked the N-DMR event, but only attenuated the P-DMR event
- Effect of preceding stimulation on trypsin-mediated [Ca2+]i elevation ([2]; EGF 100 nM, trypsin 100 nM): little effect on the [Ca^2+]i elevation mediated by trypsin
- Effect of pretreatment on mβCD-induced response (quiescent A431 cells): significantly suppressed the mβCD-induced response
- DMR signals induced by EGF (CHO cells): no clear P-DMR nor B-DMR signal
- Kd (EGFR; non-linear regression, read-out: Kd from one-phase decay constant K of the N-DMR signal): 5.76 nM
- EC50 (EGFR; read-out: EC50 from amplitudes of the N-DMR signals vs EGF concentration): ~1.45 nM

Compound: trypsin
- Effect of preceding stimulation on DMR signal induced by PAR-APs ([1]; SFFLR-amide, GLIGKV-amide, GLIGLR-amide, interval about 1 hour): significantly suppressed the DMR signal induced by either of three PAR-APs
- Effect of preceding stimulation on DMR signal induced by trypsin or thrombin ([1]; interval about 1 hour): completely eliminated the DMR signal induced by either trypsin (data not shown) or thrombin
- Effect of pretreatment on DMR mediated by bradykinin ([1]; interval about 1 hour): little effect on the DMR mediated by bradykinin
- Concentration required to induce a maximal response [2]: 0.4 µM
- Maximal [Ca2+]i elevation [2]: 100±6.3%
- EC50 [2]: 45.7 ± 5.8 nM
- Effect of preceding stimulation on [Ca2+]i elevation by subsequent PAR agonists ([2]; then 40 unit/ml thrombin, 20 μM SFFLR-amide, GLIGKV-amide, GLIGLR-amide or 200 nM trypsin, interval 6 min): induced almost no [Ca^2+]i elevation
- Maximal [Ca2+]i elevation relative to thrombin ([2]; trypsin vs thrombin): approximately 2 fold
- Reorganization of actin filaments [3]: triggered significant cytoskeletal reorganization after about 10 min
- Class of optical signature (DMR) induced by agonist [4]: first class of optical signatures

Compound: YFLLRNP [PAR1 specific partial agonist]
- Effect of pretreatment on PAR2-AP GLIGKV-mediated DMR signal ([5]; SLIGKV-amide 20 μM): no obvious effect on the PAR2-AP GLIGKV-mediated DMR signal
- Effect of pretreatment on trypsin-mediated DMR signal ([1]; 100 or 200 nM trypsin, modulators 10 μM): only partially attenuated both SFFLR-amide and trypsin-mediated DMR
- Effect of pretreatment on SFFLR-amide-mediated DMR ([1]; SFFLR-amide 20 μM, highest dose examined): only partially attenuated both SFFLR-amide and trypsin-mediated DMR
- DMR signal stimulated by compound alone [6]: only at high doses stimulated significant DMR signals
- [Ca2+]i elevation by compound alone ([2]; concentrations up to 160 μM): did not induce any significantly elevation of [Ca^2+]i
- [Ca2+]i elevation mediated by 200 nM trypsin after pretreatment ([2]; pretreatment with 80 μM, n=5): 48.3±4.5%

Compound: CC[C@]1(O)C[C@H]2CN(CCc3c([nH]c4ccccc34)[C@@](C(=O)OC)(c3cc4c(cc3OC)N(C=O)[C@H]3[C@@](O)(C(=O)OC)[C@H](OC(C)=O)[C@]5(CC)C=CCN6CC[C@]43[C@@H]65)C2)C1 [vincristine]
- Effect on cell adhesion and spreading signatures (A431 cells): suppressed not only both the initial and total responses, but also reduced the kinetics of cell spreading
- Reduction of total change in incident angle vs absence of compound (A431 cells): about 20%

Compound: SLIGKV [SLIGKV-amide, PAR2-AP]
- DMR signal after preceding stimulation with thrombin [5]: induced the DMR signal similar to that obtained without the preceding stimulation
- Effect of preceding stimulation on trypsin-induced DMR signal ([1]; interval about 1 hour): significantly suppresses but not completely eliminates the trypsin-induced DMR signal
- Concentration required to induce a maximal response [2]: 20 µM
- Effect of preceding stimulation on trypsin-induced [Ca2+]i elevation ([2]; interval 6 min, 200 nM trypsin): significantly attenuated but not completely eliminates the trypsin-induced [Ca^2+]i elevation
- Maximal [Ca2+]i elevation [2]: 52±6.3%
- EC50 [2]: 3800 ± 400 nM
- [Ca2+]i elevation after preceding stimulation with thrombin ([2]; thrombin 40 unit/ml first, interval 6 min): 48.5±3.8%
- Class of optical signature (DMR) induced by agonist [4]: first class of optical signatures

Compound: CC1CNCCN1S(=O)(=O)c1cccc2cnccc12 (stereo not drawn) [H7]
- Effect of pretreatment on mβCD-induced response (quiescent A431 cells): led to the suppression of the mβCD-induced response
